From patent US5491135A (priority 1993, dated 1996)
Values after ≈ are worked out from the molar mass of the structure shown. Values joined by “and” are separate entries in the source; they are usually repeats but may differ in a detail not shown here. Equal values may be shown once. Read-outs that look alike come from different tables or passages of the source.

Tests used:
HCMV strain AD 169 = test: Rabbit HCMV efficacy and time course recovery (Example 6)
HCMV strain AD169 = type: cell-based
[1] = PALA 50, DHPG 10 or both, mg/kg/day i.v.
[2] = day 3, DHPG 10 or PALA 50 + DHPG 10 mg/kg/d, sum of both eyes
[3] = day 3, PALA 50, DHPG 10 or both, mg/kg/d
[4] = day 3, sham-inoculated S1-S5, dose as groups 1-5
[5] = day 4, DHPG 10 or PALA 50 + DHPG 10 mg/kg/d, sum of both eyes
[6] = day 4, PALA 50, DHPG 10 or both, mg/kg/d
[7] = day 4, sham-inoculated S1-S5, dose as groups 1-5
[8] = day 5, DHPG 10 or PALA 50 + DHPG 10 mg/kg/d, sum of both eyes
[9] = day 5, PALA 50, DHPG 10 or both, mg/kg/d
[10] = day 5, sham-inoculated S1-S5, dose as groups 1-5
[11] = day 6, PALA 50, DHPG 10 or both, mg/kg/d
[12] = day 6, sham-inoculated S1-S5, dose as groups 1-5
[13] = day 7, DHPG 10 or PALA 50 + DHPG 10 mg/kg/d, sum of both eyes
[14] = day 7, sham-inoculated S1-S5, dose as groups 1-5
[15] = day 10, DHPG 10 or PALA 50 + DHPG 10 mg/kg/d, sum of both eyes
[16] = day 10, sham-inoculated S1-S5, dose as groups 1-5

## Nc1nc(O)c2ncn(COC(CO)CO)c2n1 [DHPG, reference compound]
HCMV strain AD 169; [1]
  HCMV recovery: better than the mid-dose and low-dose combination therapy group and the single agent PALA group and the placebo therapy group
  clinical disease: did reduce the development of HCMV chorioretinal infection and disease and vitreitis
HCMV strain AD 169; day 3, DHPG 10 or PALA 50 + DHPG 10 mg/kg/d
  Optic neuritis score (ONH): 2
HCMV strain AD 169; [2]
  Chorioretinal score (C): 0
  Vitreitis score (V): 3 and 2
HCMV strain AD 169; [3]
  HCMV Recovered, OD: +
  HCMV Recovered, OS: +
  HCMV Titer, OD: 10^3 pfu
  HCMV Titer, OS: 10^3 pfu
  HCMV recovery frequency: 2/2
HCMV strain AD 169; [4]
  Chorioretinal score (C): 0
  Vitreitis score (V): 0
HCMV strain AD 169; day 3, sham-inoculated S2-S5, dose as groups 2-5
  Optic neuritis score (ONH): 0
HCMV strain AD 169; [5]
  Chorioretinal score (C): 0.5
  Vitreitis score (V): 4 and 4.25
HCMV strain AD 169; [6]
  HCMV Recovered, OD: +
  HCMV Recovered, OS: -
  HCMV Titer, OD: 10^1 pfu
  HCMV recovery frequency: 1/2
HCMV strain AD 169; [7]
  Chorioretinal score (C): 0
  Vitreitis score (V): 0
HCMV strain AD 169; day 4, sham-inoculated S2-S5, dose as groups 2-5
  Optic neuritis score (ONH): 0
HCMV strain AD 169; day 5, DHPG 10 or PALA 50 + DHPG 10 mg/kg/d
  Optic neuritis score (ONH): 4 and 5
HCMV strain AD 169; [8]
  Chorioretinal score (C): 0.5
  Vitreitis score (V): 4.5 and 2.75
HCMV strain AD 169; [9]
  HCMV Recovered, OD: -
  HCMV Recovered, OS: -
  HCMV recovery frequency: 0/2
HCMV strain AD 169; [10]
  Chorioretinal score (C): 0
  Vitreitis score (V): 0
HCMV strain AD 169; day 5, sham-inoculated S2-S5, dose as groups 2-5
  Optic neuritis score (ONH): 0
HCMV strain AD 169; day 6, DHPG 10 or PALA 50 + DHPG 10 mg/kg/d, sum of both eyes
  Vitreitis score (V): 3.5 and 2.5
HCMV strain AD 169; [11]
  HCMV Recovered, OD: +
  HCMV Recovered, OS: -
  HCMV recovery frequency: 1/2
HCMV strain AD 169; day 6, PALA 50 or DHPG 10 mg/kg/d
  HCMV Titer, OD: 10^1 pfu
HCMV strain AD 169; [12]
  Chorioretinal score (C): 0
  Vitreitis score (V): 0
HCMV strain AD 169; day 6, sham-inoculated S2-S5, dose as groups 2-5
  Optic neuritis score (ONH): 0
HCMV strain AD 169; day 7, DHPG 10 or PALA 50 + DHPG 10 mg/kg/d
  Optic neuritis score (ONH): 3 and 6
HCMV strain AD 169; [13]
  Chorioretinal score (C): 0
  Vitreitis score (V): 3.5 and 3
HCMV strain AD 169; [14]
  Chorioretinal score (C): 0
  Vitreitis score (V): 0
HCMV strain AD 169; day 7, sham-inoculated S2-S5, dose as groups 2-5
  Optic neuritis score (ONH): 0
HCMV strain AD 169; day 10, DHPG 10 or PALA 50 + DHPG 10 mg/kg/d
  Optic neuritis score (ONH): 3
HCMV strain AD 169; [15]
  Chorioretinal score (C): 0
  Vitreitis score (V): 1.75 and 1.25
HCMV strain AD 169; [16]
  Chorioretinal score (C): 0
  Vitreitis score (V): 0
HCMV strain AD 169; day 10, sham-inoculated S2-S5, dose as groups 2-5
  Optic neuritis score (ONH): 0
HCMV strain AD169; Human betaherpesvirus 5, AD169, Hs68, AD 169, read-out: ED50 (the source's name)
  EC50: 19 µg/mL (≈ 74.4 µM)
HCMV strain AD169; day 0 PI
  Cell associated HCMV titer: 10^2 PFU/ml
  Cell free (supernatant) HCMV titer: 10^5 PFU/ml
HCMV strain AD169; day 1 PI
  Cell associated HCMV titer: 10^2 PFU/ml
  Cell free (supernatant) HCMV titer: 10^1 PFU/ml
HCMV strain AD169; day 2 PI
  Cell associated HCMV titer: 10^1 PFU/ml
  Cell free (supernatant) HCMV titer: 10^1 PFU/ml
HCMV strain AD169; day 3 PI
  Cell associated HCMV titer: 10^1 PFU/ml
  Cell free (supernatant) HCMV titer: 10^1 PFU/ml
HCMV strain AD169; day 4 PI
  Cell associated HCMV titer: 10^1 PFU/ml
  Cell free (supernatant) HCMV titer: 0 PFU/ml
HCMV strain AD169; day 5 PI
  Cell associated HCMV titer: 0 PFU/ml
  Cell free (supernatant) HCMV titer: 0 PFU/ml
HCMV strain AD169; day 6 PI
  Cell associated HCMV titer: 10^1 PFU/ml
HCMV strain AD169; day 7 PI
  Cell associated HCMV titer: 0 PFU/ml
